Measurements taken from patent publication US20230390251A1, “METHODS OF TREATING RIBONUCLEOTIDE REDUCTASE-RELATED DISEASES WITH A RIBONUCLEOTIDE REDUCTASE INHIBITOR” (TAIHO PHARMACEUTICAL CO., LTD., priority 2020, published 2023).

Tests used:
[1] = test system: Human acute myelocytic leukemia (AML) cell line MV-4-11 cells; experiment: Anti-tumor effect (relative tumor volume) in nude mice implanted with MV-4-11 cells; format: in vivo; conditions: for effect of reducing tumor volume (RTV) compared to the Control Group: Day 15
Experimental: Anti-tumor Effect and body weight change in QOD Dosing Regimen Human acute myelocytic leukemia (AML) cell line MV-4-11 cells (American Type Culture Collection CRL-9591™) were implanted in the right thorax of male nude mice (CLEA Japan, Inc.). After implantation of the tumor, the major axis (mm) and minor axis (mm) of the tumor were measured, and tumor volume (TV) was calculated for each mouse. Then, the mice were assigned to the following groups, Control group (◯), Continuous Dosing Group (●: 100 mg/kg/day; ⋄: 150 mg/kg/day) and QOD Dosing Group (▴: 200 mg/kg/day; ♦: 300 mg/kg/day), so that the average TV of each group was equivalent. The day in which the grouping (n=5) was conducted was taken as Day 0.
5-chloro-2-(N-((1S,2R)-2-(6-fluoro-2,3-dimethylphenyl)-1-(5-oxo-4,5-dihydro-1,3,4-oxadiazol-2-yl)propyl)sulfamoyl)benzamide (Compound A) was suspended in 5 mg/mL hypromellose solution to provide appropriate test samples for 100 mg/kg, 150 mg/kg. 200 mg/kg, and 300 mg/kg dosing regimen. Animals of the Control group were not treated.
To mice in the Continuous Dosing Group, 100 mg/kg/day or 150 mg/kg/day of Compound A was orally administered once daily from Day 1 to Day 14. The total dosage for mice in the Continuous Dosing Group administered 100 mg/kg/day (Group C-1) was 1400 mg/kg, and the total dosage for mice in the Continuous Dosing Group administered 150 mg/kg/day (Group C-2) was 2100 mg/kg.
To mice in the QOD Dosing Group, 200 mg/kg/day or 300 mg/kg/day of Compound A was orally administered once every other day for two weeks (Days 1, 3, 5, 7, 9, 11 and 13). The total dosage for mice in the QOD Dosing Group administered 200 mg/kg/day (Group QOD-1) was 1400 mg/kg, and the total dosage for mice in the QOD Dosing Group administered 300 mg/kg/day (Group QOD-2) was 2100 mg/kg.
On Days 4, 8, 11 and 15, using the following formula: TV (mm^3)=(major axis×minor axis^2)/2, relative tumor volume (RTV) was calculated as an index of anti-tumor effect during the dosing period for each group (FIG. 1).
Similar to Example 1, anti-tumor effect and body weight change were studied in mice harboring MV-4-11 cells among the following five groups: Control group (◯), Continuous Dosing Group (●: 100 mg/kg/day; ⋄: 150 mg/kg/day) and QW Dosing Group (▪: 700 mg/kg/day; x: 1050 mg/kg/day).
To mice in the QW Dosing Group, 700 mg/kg/day or 1050 mg/kg/day of Compound A was orally administered once per week for two weeks (Days 1 and 8). The total dosage for mice in the QW Dosing Group administered 700 mg/kg/day (Group QW-1) was 1400 mg/kg, and the total dosage for mice in the QW Dosing Group administered 1050 mg/kg/day (Group QW-2) was 2100 mg/kg.
(§1) Similar to Example 1, anti-tumor effect and body weight change were studied in mice harboring MV-4-11 cells among the following five groups: Control group (◯), Continuous Dosing Group (●: 100 mg/kg/day; ⋄: 150 mg/kg/day) and 3QW Dosing Group 1 (▴: 233 mg/kg/day; ♦: 350 mg/kg/day).
To mice in the 3QW Dosing Group 1, 233 mg/kg/day or 350 mg/kg/day of Compound A was orally administered three days consecutively per week for two weeks (Days 1-3 and 8-10). The total dosage for mice in the 3QW Dosing Group 1 administered 233 mg/kg/day (Group 3QW1-1) was 1400 mg/kg, and the total dosage for mice in the 3QW Dosing Group 1 administered 350 mg/kg/day (Group 3QW1-2) was 2100 mg/kg.
as §1, with “Anti-tumor Effect and body weight change in 3QW Dosing Regimen 2 Similar” for “Similar”, “group (0),” for “group (◯),”, “Group 2” for “Group 1”
To mice in the 3QW Dosing Group 2, 233 mg/kg/day or 350 mg/kg/day of Compound A was orally administered every other day three times per week for two weeks (Days 1, 3, 5, 8, 10 and 12). […]

[2] = Body weight change as index of toxicity in MV-4-11 tumor-bearing nude mice; format: in vivo
CFPAC-1 cells = experiment: Cell proliferation assay in CFPAC-1 cells treated with siRNA against SLFN11; format: cell-based; conditions: pancreatic cancer cell line CFPAC-1, siSLFN11 vs siControl, 3 days of exposure
Experimental: A673 cells, NCI-H460 cells and CFPAC-1 cells were transfected with 1 nM siRNAs for 24 h using Lipofectaminet®RNAiMAX Reagent (Thermo Fisher Scientific Inc.) and then re-seeded onto a 96-well plate for cell proliferation assay and caspase induction assay and onto dishes for immunoblotting analysis. siRNAs were obtained from Thermo Fisher Scientific Inc. as follows: Silencer® Select Negative Control #1 siRNA (#4390843 used as siControl), SLFN11 Silencer® Select Pre-designed siRNA (#s40703 used as siSLFN11-1, #s40704 as siSLFN11-2, and #s40702 as siSLFN11-3).
Cell proliferation assay was performed in accordance with conventional methods, available in Hasako, et al., ibid. Briefly, cells treated with siRNAs for 24 h were plated onto 96 well plate and incubated for 24 h, followed by 3 days of exposure to the compound A. After compound exposure, viable cells were detected by using the CellTiter-Glo luminescent cell viability assay (Promega).

[3] = 3QW Dosing Group 1, 233 or 350 mg/kg/day orally Days 1-3 and 8-10
[4] = 3QW Dosing Group 2, 233 or 350 mg/kg/day orally Days 1, 3, 5, 8, 10 and 12
[5] = 5QW Dosing Group 1, 140 or 210 mg/kg/day orally Days 1-5 and 8-12
[6] = 5QW Dosing Group 2, 140 or 210 mg/kg/day orally Days 1-2, 4-6, 8-9 and 11-13
[7] = Continuous Dosing Group, 100 or 150 mg/kg/day orally once daily Day 1 to Day 14

Cc1ccc(F)c([C@@H](C)[C@H](NS(=O)(=O)c2ccc(Cl)cc2C(N)=O)c2n[nH]c(=O)o2)c1C [Compound A, 5-chloro-2-(N-((1S,2R)-2-(6-fluoro-2,3-dimethylphenyl)-1-(5-oxo-4,5-dihydro-1,3,4-oxadiazol-2-yl)propyl)sulfamoyl)benzamide]
effect of reducing tumor volume, Group 3QW1-2 compared with Group C-2 ([1]; 3QW (consecutive) 350 mg/kg/day vs continuous 150 mg/kg/day, total dosage 2100 mg/kg, not statistically significant): similar
effect of reducing tumor volume, Group 3QW2-1 compared with Group C-1 ([1]; 3QW (every other day) 233 mg/kg/day vs continuous 100 mg/kg/day, total dosage 1400 mg/kg, t-test P<0.05): higher than Group C-1
effect of reducing tumor volume, Group 3QW2-2 compared with Group C-2 ([1]; 3QW (every other day) 350 mg/kg/day vs continuous 150 mg/kg/day, total dosage 2100 mg/kg, not statistically significant): similar
effect of reducing tumor volume (RTV) compared to the Control Group [1, 3]: showed the effect of reducing tumor volume compared to the Control Group
effect of reducing tumor volume (RTV) compared to the Control Group [1, 4]: showed the effect of reducing tumor volume compared to the Control Group
effect of reducing tumor volume, Group 5QW2-2 compared with Group C-2 ([1]; 5QW (2 on/1 off/3 on/1 off) 210 mg/kg/day vs continuous 150 mg/kg/day, total dosage 2100 mg/kg, t-test p<0.05): higher than Group C-2 with a statistically significant difference
effect of reducing tumor volume, Group 5QW1-2 compared with Group C-2 ([1]; 5QW (consecutive) 210 mg/kg/day vs continuous 150 mg/kg/day, total dosage 2100 mg/kg, not statistically significant): similar
effect of reducing tumor volume (RTV) compared to the Control Group [1, 5]: showed the effect of reducing tumor volume compared to the Control Group
effect of reducing tumor volume (RTV) compared to the Control Group [1, 6]: showed the effect of reducing tumor volume compared to the Control Group
effect of reducing tumor volume (RTV) compared to the Control Group [1, 7]: showed the effect of reducing tumor volume compared to the Control Group
effect of reducing tumor volume, Group QOD-1 compared with Group C-1 ([1]; QOD 200 mg/kg/day vs continuous 100 mg/kg/day, total dosage 1400 mg/kg, t-test p<0.05): higher than Group C-1
effect of reducing tumor volume, Group QOD-2 compared with Group C-2 ([1]; QOD 300 mg/kg/day vs continuous 150 mg/kg/day, total dosage 2100 mg/kg, not statistically significant): similar
effect of reducing tumor volume (RTV) compared to the Control Group ([1]; QOD Dosing Group, 200 or 300 mg/kg/day orally Days 1, 3, 5, 7, 9, 11 and 13): showed the effect of reducing tumor volume compared to the Control Group
effect of reducing tumor volume, Group QW-2 compared with Group C-2 ([1]; QW 1050 mg/kg/day vs continuous 150 mg/kg/day, total dosage 2100 mg/kg, not statistically significant): similar
effect of reducing tumor volume (RTV) compared to the Control Group ([1]; QW Dosing Group, 700 or 1050 mg/kg/day orally Days 1 and 8): showed the effect of reducing tumor volume compared to the Control Group
recovery indicated by BW change %, Group 3QW1-1 compared with Group C-1 ([2]; 3QW (consecutive) 233 mg/kg/day vs continuous 100 mg/kg/day, total dosage 1400 mg/kg, Day 15, t-test p<0.05): better with a statistically significant difference relative to Group C-1
recovery indicated by BW change %, Group 3QW1-2 compared with Group C-2 ([2]; 3QW (consecutive) 350 mg/kg/day vs continuous 150 mg/kg/day, total dosage 2100 mg/kg, Day 15, t-test p<0.05): better with a statistically significant difference relative to Group C-2
recovery indicated by BW change %, Group 3QW2-1 compared with Group C-1 ([2]; 3QW (every other day) 233 mg/kg/day vs continuous 100 mg/kg/day, total dosage 1400 mg/kg, Day 15, t-test p<0.05): better with a statistically significant difference relative to Group C-1
recovery indicated by BW change %, Group 3QW2-2 compared with Group C-2 ([2]; 3QW (every other day) 350 mg/kg/day vs continuous 150 mg/kg/day, total dosage 2100 mg/kg, Day 15, t-test p<0.05): better with a statistically significant difference relative to Group C-2
body weight loss (BW change %) [2, 3]: body weight loss was observed
body weight loss (BW change %) [2, 4]: body weight loss was observed
BW change %, Group 5QW2-1 compared with Group C-1 ([2]; 5QW (2 on/1 off/3 on/1 off) 140 mg/kg/day vs continuous 100 mg/kg/day, total dosage 1400 mg/kg, Day 15): a statistically significant difference could not be observed
recovery indicated by BW change %, Group 5QW2-2 compared with Group C-2 ([2]; 5QW (2 on/1 off/3 on/1 off) 210 mg/kg/day vs continuous 150 mg/kg/day, total dosage 2100 mg/kg, Day 15, t-test p<0.05): better with a statistically significant difference relative to Group C-2
recovery indicated by BW change %, Group 5QW1-1 compared with Group C-1 ([2]; 5QW (consecutive) 140 mg/kg/day vs continuous 100 mg/kg/day, total dosage 1400 mg/kg, Day 15, t-test p<0.05): better with a statistically significant difference relative to Group C-1
recovery indicated by BW change %, Group 5QW1-2 compared with Group C-2 ([2]; 5QW (consecutive) 210 mg/kg/day vs continuous 150 mg/kg/day, total dosage 2100 mg/kg, Day 15, t-test p<0.05): better with a statistically significant difference relative to Group C-2
body weight loss (BW change %) [2, 5]: body weight loss was observed
body weight loss (BW change %) [2, 6]: body weight loss was observed
body weight loss (BW change %) [2, 7]: body weight loss was observed
BW change %, Group QOD-1 compared with Group C-1 ([2]; QOD 200 mg/kg/day vs continuous 100 mg/kg/day, total dosage 1400 mg/kg): a statistically significant difference could not be observed
recovery indicated by BW change %, Group QOD-2 compared with Group C-2 ([2]; QOD 300 mg/kg/day vs continuous 150 mg/kg/day, total dosage 2100 mg/kg, Day 15, t-test p<0.05): better with a statistically significant difference compared with Group C-2
body weight loss (BW change %) ([2]; QOD Dosing Group, 200 or 300 mg/kg/day orally every other day for two weeks): body weight loss was observed
recovery indicated by BW change %, Group QW-1 compared with Group C-1 ([2]; QW 700 mg/kg/day vs continuous 100 mg/kg/day, total dosage 1400 mg/kg, Day 15, t-test p<0.05): better with a statistically significant difference than Group C-1
recovery indicated by BW change %, Group QW-2 compared with Group C-2 ([2]; QW 1050 mg/kg/day vs continuous 150 mg/kg/day, total dosage 2100 mg/kg, Day 15, t-test p<0.05): better with Group QW-2 having a statistically significant difference relative to Group C-2
body weight loss (BW change %) ([2]; QW Dosing Group, 700 or 1050 mg/kg/day orally once per week for two weeks): body weight loss was observed
effect of SLFN11 knockdown with siRNA on the cytotoxic effect (CFPAC-1 cells): SLFN11 knockdown significantly suppressed the cytotoxic effect
